Laboratory results reported in patent publication US8431593B2, “Heteroaryl amide derivatives” (H. Lundbeck A/S, priority 2006, dated 2013).
Where two headings read alike, the source gives them in different places. Blank lines part the entries; values can stand above or below the compound they belong to.

Molecular target: T1, P2X7 receptor (Homo sapiens, UniProt Q99572)
T1 construct: host or cells: SH-SY5Y
T1 sequence (Q99572 1-595): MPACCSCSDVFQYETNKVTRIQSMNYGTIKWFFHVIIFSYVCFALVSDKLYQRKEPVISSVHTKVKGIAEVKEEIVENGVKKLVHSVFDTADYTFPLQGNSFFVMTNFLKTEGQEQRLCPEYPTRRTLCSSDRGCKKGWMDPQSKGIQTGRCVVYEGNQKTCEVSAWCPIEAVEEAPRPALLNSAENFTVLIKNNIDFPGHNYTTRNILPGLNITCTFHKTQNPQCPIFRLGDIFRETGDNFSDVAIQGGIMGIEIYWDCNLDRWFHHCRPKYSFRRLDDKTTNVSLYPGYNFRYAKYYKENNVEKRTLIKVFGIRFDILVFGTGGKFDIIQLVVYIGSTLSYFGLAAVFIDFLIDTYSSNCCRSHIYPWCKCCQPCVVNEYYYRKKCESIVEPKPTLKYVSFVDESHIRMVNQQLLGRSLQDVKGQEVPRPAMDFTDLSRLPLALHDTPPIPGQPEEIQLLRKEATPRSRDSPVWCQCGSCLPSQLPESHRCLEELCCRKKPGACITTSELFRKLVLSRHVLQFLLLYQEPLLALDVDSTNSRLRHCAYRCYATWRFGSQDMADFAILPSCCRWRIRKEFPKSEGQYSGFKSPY
Experiment: P2X7 calcium mobilization assay, high throughput, antagonist activity (Example 4A)
Assay type: cell-based
How it was run: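 100,000 cells/well, plated day -1. Dye 1 h → rinse → compound 1 h, RT → FLIPR^TETRA Ca2+ mobilization. Max RFU minus mean negative control (no agonist); mean agonist-well max as positive control.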

[1] = 50% decrease in the fluorescence response of cells exposed to 80 μM 2′(3′)-O-(4-benzoyl-benzoyl)adenosine 5′-triphosphate, Example 4A, read-out: IC50
[2] = 50% decrease in the fluorescence response of cells exposed to 80 μM of 2′(3′)-O-(4-benzoyl-benzoyl)adenosine 5′-triphosphate, determined as in Example 4A, read-out: IC50
[3] = 50% decrease in the fluorescence response of cells exposed to 80 μM of 2′(3′)-O-(4-benzoyl-benzoyl)adenosine 5′-triphosphate, Example 4A, read-out: IC50
[4] = fluorescence response of cells exposed to 80 μM 2′(3′)-O-(4-benzoyl-benzoyl)adenosine 5′-triphosphate, Example 4A, read-out: IC50
[5] = SH-SY5Y cells, 50% decrease in fluorescence response to 80 μM BzATP, read-out: IC50

IC50 [1]: < 2000 nM
SMILES: C[C@H]1CNCCN1C(=O)c1cn2c(C(=O)NCC34CC5CC(CC(C5)C3)C4)cccc2n1 [Compound 601, N-(adamantan-1-ylmethyl)-2-{[(2S)-2-methylpiperazin-1-yl]carbonyl}imidazo [1,2-a]pyridine-5-carboxamide]

IC50 [2]: < 2000 nM
SMILES: COC1CCN(C(=O)Cc2cn3c(C(=O)NCC4(c5ccc(Cl)cc5)CCCCC4)cccc3n2)CC1 [Compound 898, N-{[1-(4-chlorophenyl)cyclohexyl]methyl}-2-[2-(4-methoxypiperidin-1-yl)-2-oxoethyl] imidazo[1,2-a] pyridine-5-carboxamide]

IC50 [3]: < 2000 nM
SMILES: CN1CCCCC1CCNC(=O)c1cn2c(C(=O)NCC34CC5CC(CC(C5)C3)C4)cccc2n1 (centres unmarked) [Compound 664, 5-N-(adamantan-1-ylmethyl)-2-N-[2-(1-methylpiperidin-2-yl)ethyl]imidazo[1,2-a]pyridine-2,5-dicarboxamide]

IC50 [3]: < 2000 nM
SMILES: CC1(C)C2CC[C@H](CNC(=O)c3cccc4nc(CC(=O)NCC(F)(F)F)cn34)C1C2 (stereo partly drawn) [Compound 793, N-{[(2S)-6,6-dimethylbicyclo [3.1.1]hept-2-yl]methyl}-2-{2-oxo-2-[(2,2,2-trifluoroethyl)amino]ethyl}imidazo [1,2-a]pyridine-5-carboxamide]

IC50 [2]: < 2000 nM
SMILES: O=C(Cc1cn2c(C(=O)NCC3(c4ccc(Cl)cc4)CCOCC3)cccc2n1)N[C@@H]1CCCNC1 [Compound 926, N-{[4-(4-chlorophenyl)tetrahydro-2H-pyran-4-yl]methyl}-2-{2-oxo-2-[(3R)-piperidin-3-ylamino]ethyl}imidazo [1,2-a]pyridine-5-carboxamide]

IC50 [3]: < 2000 nM
SMILES: CN(CC1CCCCN1C)C(=O)c1cn2c(C(=O)NCC34CC5CC(CC(C5)C3)C4)cccc2n1 (centres unmarked) [Compound 707, 5-N-(adamantan-1-ylmethyl)-2-N-methyl-2-N-[(1-methylpiperidin-2-yl)methyl]imidazo[1,2-a]pyridine-2,5-dicarboxamide]

IC50 [3]: < 2000 nM
SMILES: CN(C)CCNC(=O)C1CCCN(C(=O)c2cn3c(C(=O)NCC45CC6CC(CC(C6)C4)C5)cccc3n2)C1 (centres unmarked) [Compound 704, N-(adamantan-1-ylmethyl)-2-[(3-{[2-(dimethylamino)ethyl]carbamoyl}piperidin-1-yl)carbonyl]imidazo[1,2-a]pyridine-5-carboxamide]

IC50 [3]: < 2000 nM
SMILES: N[C@@H]1CCN(Cc2cn3c(C(=O)NCC(CC4CCCCC4)c4ccccc4)cccc3n2)C1 (some centres unmarked) [Compound 787, 2-[(3-aminopyrrolidin-1-yl)methyl]-N-(3-cyclohexyl-2-phenylpropyl) imidazo[1,2-a] pyridine-5-carboxamide]

IC50 [2]: < 2000 nM
SMILES: CC(C)CC(CNC(=O)c1cccc2nc(CC(Cc3ccccc3)C(=O)O)cn12)c1ccccc1 (centres unmarked) [Compound 1004, 2-benzyl-3-{5-[(4-methyl-2-phenylpentyl)carbamoyl]imidazo[1,2-a]pyridin-2-yl} propanoic acid]

IC50 [3]: < 2000 nM
SMILES: CCc1ccc(CN(C)C(=O)c2cn3c(C(=O)NCC45CC6CC(CC(C6)C4)C5)cccc3n2)nc1 [Compound 713, 5-N-(adamantan-1-ylmethyl)-2-N-[(5-ethylpyridin-2-yl)methyl]-2-N-methylimidazo[1,2-a]pyridine-2,5-dicarboxamide]

IC50 [3]: < 2000 nM
SMILES: CNC1CCN(C(=O)CCc2cn3c(C(=O)NCC45CC6CC(CC(C6)C4)C5)cccc3n2)C1 (centres unmarked) [Compound 779, N-(adamantan-1-ylmethyl)-2-{3-[3-(methylamino)pyrrolidin-1-yl]-3-oxopropyl} imidazo[1,2-a] pyridine-5-carboxamide]

IC50 [2]: < 2000 nM
SMILES: O=C(O)CC(Cc1ccccc1)c1cn2c(C(=O)NCC34CC5CC(CC(C5)C3)C4)cccc2n1 (centres unmarked) [Compound 994, 3-{5-[(adamantan-1-ylmethyl)carbamoyl]imidazo[1,2-a]pyridin-2-yl}-4-phenylbutanoic acid]

IC50 [3]: < 2000 nM
SMILES: CC(C)CC(CNC(=O)c1cccc2nc(CC(=O)N3CCSCC3)cn12)c1ccc(Cl)cc1 (centres unmarked) [Compound 798, N-[2-(4-chlorophenyl)-4-methylpentyl]-2-(2-oxo-2-thiomorpholin-4-ylethyl)imidazo[1,2-a] pyridine-5-carboxamide]

IC50 [3]: < 2000 nM
SMILES: CC(C)(O)C1CCCCN1C(=O)c1cn2c(C(=O)NCC34CC5CC(CC(C5)C3)C4)cccc2n1 (centres unmarked) [Compound 702, N-(adamantan-1-ylmethyl)-2-{[2-(1-hydroxy-1-methylethyl)piperidin-1-yl]carbonyl}imidazo[1,2-a]pyridine-5-carboxamide]

IC50 [1]: < 2000 nM
SMILES: CC1(C)[C@@H]2CC[C@@H](CNC(=O)c3cccc4nc(CC(=O)N5CCNCC5)cn34)[C@H]1C2 [Compound 555, N-{[(1R,2R,5R)-6,6-dimethylbicyclo[3.1.1]hept-2-yl]methyl}-2-(2-oxo-2-piperazin-1-ylethyl)imidazo[1,2-a]pyridine-5-carboxamide]

IC50 [2]: < 2000 nM
SMILES: CC(C)CC(CNC(=O)c1cccc2nc(CC(=O)N[C@@H]3CCNC3)cn12)c1ccc(Cl)cc1 (stereo partly drawn) [Compound 960, N-[2-(4-chlorophenyl)-4-methylpentyl]-2-{2-oxo-2-[(3R)-pyrrolidin-3-ylamino]ethyl} imidazo[1,2-a] pyridine-5-carboxamide]

The remaining lines, values behind:

SMILES: O=C(NCCO)c1cn2c(C(=O)NCC34CC5CC(CC(C5)C3)C4)cccc2n1 [Compound 8, 5-N-(adamantan-1-ylmethyl)--(2-hydroxyethyl)imi-dazo[1,2-a]pyridine-2,5-dicarboxamide]
IC50: < 2000 nM

SMILES: CC(C)[C@H]1CN(C(=O)c2cn3c(C(=O)NC[C@@H]4CC[C@H]5C[C@@H]4C5(C)C)cccc3n2)CCN1 [Compound 308]
IC50 [4]: < 2000 nM

SMILES: CC1CCN(C(=O)c2cn3c(NC(=O)CC45CC6CC(CC(C6)C4)C5)cccc3n2)CC1 [Compound 363, 2-adamantan-1-yl-N-{2-[(4-methylpiperidin-1-yl)carbonyl]imidazo[1,2-a]pyridin-5-yl}acetamide]
IC50 [4]: < 2000 nM

SMILES: O=C(NCC12CC3CC(CC(C3)C1)C2)c1cccc2nc(CN3CC[C@@H](NCCO)C3)cn12 [Compound 198, N-(adamantan-1-ylmethyl)-2-({(3R)-3-[(2-hydroxy-ethyl)amino]pyrrolidin-1-yl}methyl)imidazo[1,2-a]pyridine-5-carboxamide]
IC50 [5]: < 2000 nM

SMILES: O=C(O)COCc1cn2c(C(=O)NCC34CC5CC(CC(C5)C3)C4)cccc2n1 [Compound 285, ({5-[{adamantan-1-ylmethyl)carbamoyl]imidazo[1,2-a]pyridin-2-yl}methoxy)acetic acid]
IC50 [4]: < 2000 nM

SMILES: O=C(NCC12CC3CC(CC(C3)C1)C2)c1cccc2nc(CN(CCO)CCO)cn12 [Compound 136, N-(adamantan-1-ylmethyl)-2-{[bis(2-hydroxyeth-yl)amino]methyl}imi-dazo[1,2-a]pyridine-5-carboxamide]
IC50: < 2000 nM

SMILES: CN(C)CCN(C(=O)Cc1cn2c(C(=O)NC[C@@H]3CC[C@@H]4C[C@H]3C4(C)C)cccc2n1)C1CCNCC1(C)C (stereo partly drawn) [Compound 574, 2-(2-{[2-(dimethylamino)ethyl] (3,3-dimethylpiperidin-4-yl)amino}-2-oxoethyl)-N-{[(1R,2R,5R)-6,6-dimethylbicyclo [3.1.1]hept-2-yl]methyl}imidazo[1,2-a]pyridine-5-carboxamide]
IC50 [1]: < 2000 nM

SMILES: CCNC(=O)Cc1cn2c(C(=O)NCC34CC5CC(CC(C5)C3)C4)cccc2n1 [Compound 17, N-(adamantan-1-ylmethyl)-2-[2-(ethylamino)-2-oxoethyl]imidazo[1,2-a]pyridine-5-carboxamide]
IC50 [5]: < 2000 nM

SMILES: O=C(CC12CC3CC(CC(C3)C1)C2)Nc1cccc2nc(CSc3nnc[nH]3)cn12 [Compound 540, 2-adamantan-1-yl-N-{2-[(4H-1,2,4-triazol-3-ylthio)methyl]imidazo [1,2-a]pyridin-5-yl}acetamide]
IC50 [1]: < 2000 nM

SMILES: Cn1ccnc1SCc1cn2c(C(=O)NCC34CC5CC(CC(C5)C3)C4)cccc2n1 [Compound 530, N-(adamantan-1-ylmethyl)-2-{[(1-methyl-1H-imidazol-2-yl)thio]methyl}imidazo [1,2-a]pyridine-5-carboxamide]
IC50 [1]: < 2000 nM

SMILES: CC1(C)[C@H]2CC[C@@H](CNC(=O)c3cccc4nc(C(=O)N5CCC(N)CC5)cn34)[C@@H]1C2 [Compound 326, 2-[(4-aminopiperidin-1-yl)carbonyl]-N-{[(1S,2R,5S)-6.6-dimethylbicyclo[3.1.1]hept-2-yl]methyl}imidazo[1,2-a]pyridine-5-carboxamide]
IC50 [4]: < 2000 nM

SMILES: O=C(NCC12CC3CC(CC(C3)C1)C2)c1cccc2nccn12 [Compound 1, N-(adamantan-1-ylmethyl)imidazo[1,2-a]pyridine-5-carboxamide]
IC50 [5]: < 2000 nM

SMILES: COC[C@H]1CCCN1C(=O)Cc1cn2c(C(=O)NCC34CC5CC(CC(C5)C3)C4)cccc2n1 [Compound 172, N-(adamantan-1-ylmethyl)-2-{2-[(2R)-2-(methoxymethyl)pyrrolidin-1-yl]-2-oxoethyl}imidazo[1,2-a]pyridine-5-carboxamide]
IC50 [5]: < 2000 nM
